Results: article PMC12396291, “DNA-encoded library screening uncovers potent DNMT2 inhibitors targeting a cryptic allosteric binding site” (iScience, 2025)
“Also recorded” adds a separate entry of the source.

molecular target: T1, DNMT2 (Homo sapiens, UniProt O14717); assay: MST displacement assay with fluorescent FTAD probe; assay type: binding; design: Fnorm (MST screening): unit not given here; conditions: ligand 100 μM, FTAD probe
T1 construct: Recombinant human DNMT2 (full-length); His-tag; made in house; host or cells: E. coli
T1 sequence (O14717 1-391): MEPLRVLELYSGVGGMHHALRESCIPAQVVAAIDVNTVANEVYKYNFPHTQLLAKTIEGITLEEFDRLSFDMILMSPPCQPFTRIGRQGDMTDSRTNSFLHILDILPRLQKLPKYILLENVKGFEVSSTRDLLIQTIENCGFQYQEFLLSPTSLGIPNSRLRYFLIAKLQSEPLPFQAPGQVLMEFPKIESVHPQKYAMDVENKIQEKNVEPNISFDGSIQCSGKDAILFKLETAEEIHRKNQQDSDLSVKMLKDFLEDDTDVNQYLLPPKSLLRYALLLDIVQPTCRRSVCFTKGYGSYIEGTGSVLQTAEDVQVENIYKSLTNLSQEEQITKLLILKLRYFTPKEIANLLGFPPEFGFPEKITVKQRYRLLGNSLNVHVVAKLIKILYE
Procedure: Screening for ligand binding and evaluation of dose-response affinity profiles was performed via microscale thermophoresis (MST) as described previously.[42] The measurements were conducted with a Nanotemper Technologies Monolith NT.115 device. All samples were measured in Monolith standard capillaries at 25 °C. The acquisition mode was set to “Nano-Blue” with an excitation power of 30% and a medium MST power, while the system was controlled using the software MO.Control (version 1.6.1) and for evaluation MO.Affinity Analysis (version 2.3) was used. The samples contained 2 μM DNMT2, 100 nM FTAD (5-FAM-triazolyl-adenosyl-Dab) probe, and 1.3% DMSO in MST buffer (50 mM HEPES, 150 mM NaCl, 1 mM dithiothreitol (DTT), 0.1% PEG-8000, 0.05% polysorbate-20, pH 7.4).[42] All compounds were employed at a final concentration of 100 μM for the initial ligand screening.

Compound	Fnorm (% displ.): FTAD displacement [%]	Fnorm (MST screening)
CCc1ccc(C(=O)NCC2(C(=O)N[C@@H](CC(=O)NCC(=O)O)Cc3c[nH]c4ccccc34)CC2)cc1 [Compound 9]	46	907.7
CCc1ccc(C(=O)NCC2(C(=O)N[C@@H](CC(=O)NCC(N)=O)Cc3c[nH]c4ccccc34)CC2)cc1 [Compound 10]	40	903.3
Cc1ccc(C(=O)NCC2(C(=O)N[C@@H](CC(=O)NCC(N)=O)Cc3ccccc3)CC2)cc1 [Compound 11]	24	891.2
CCCc1ccc(C(=O)NCC2(C(=O)N[C@@H](CC(=O)NCC(N)=O)Cc3ccccc3)CC2)cc1 [Compound 12]	23	890.4
COc1ccc(C(=O)NCC2(C(=O)N[C@@H](CC(=O)NCC(N)=O)Cc3ccccc3)CC2)cc1 [Compound 13]	32	897.7
CCc1ccc(C(=O)NCC2(C(=O)N[C@@H](CC(=O)NCC(N)=O)Cc3ccc(O)cc3)CC2)cc1 [Compound 15]	5	862.9
CCc1ccc(C(=O)NCC2(C(=O)N[C@@H](CC(=O)NCC(N)=O)Cc3ccc(Br)cc3)CC2)cc1 [Compound 17]	71	924.6
NC(=O)CNC(=O)C[C@@H](Cc1ccccc1)NC(=O)C1(CNC(=O)c2ccccc2)CC1 [Compound 18]	7	868.2
C#Cc1ccc(C(=O)NCC2(C(=O)N[C@@H](CC(=O)NCC(N)=O)Cc3ccccc3)CC2)cc1 [Compound 19]	8	871.4
NC(=O)CNC(=O)C[C@@H](Cc1ccccc1)NC(=O)C1(CNC(=O)c2ccc(C3(C(F)(F)F)N=N3)cc2)CC1 [Compound 20]	11	876.5
CCc1ccc(C(=O)NCC2(C(=O)N[C@@H](CC(=O)NCC(N)=O)Cc3ccccc3)CC2)c(C)c1 [Compound 21]	5	862.4
NC(=O)CNC(=O)C[C@@H](Cc1ccccc1)NC(=O)C1(CNC(=O)C2CCCCC2)CC1 [Compound 22]	5	864.4
CC(=O)NCC1(C(=O)N[C@@H](CC(=O)NCC(N)=O)Cc2ccccc2)CC1 [Compound 23]	5	864.4
CCc1ccc(C(=O)NC[C@H](N)C(=O)N[C@@H](CC(=O)NCC(N)=O)Cc2c[nH]c3ccccc23)cc1 [Compound 24]	4	860.8
CCc1ccc(C(=O)NC[C@H](C)C(=O)N[C@@H](CC(=O)NCC(N)=O)Cc2c[nH]c3ccccc23)cc1 [Compound 25]	3	855.5
CCc1ccc(C(=O)NC2(C(=O)N[C@@H](CC(=O)NCC(N)=O)Cc3c[nH]c4ccccc34)CC2)cc1 [Compound 26]	5	861.9
CCc1ccc(C(=O)NCCC(=O)N[C@@H](CC(=O)NCC(N)=O)Cc2c[nH]c3ccccc23)cc1 [Compound 27]	5	863.8
CCc1ccc(C(=O)NCC2(C(=O)N[C@@H](CC(=O)NCC(N)=O)Cc3ccccc3)C[C@H]2C(F)(F)F)cc1 (stereo partly shown) [Compound 28]	8	871.9

Compound	Fnorm (% displ.): FTAD displacement [%]	Fnorm (MST screening)
CCc1ccc(C(=O)NCC2(C(=O)N[C@@H](CC(=O)NCC(N)=O)Cc3ccccc3)C[C@H]2S(C)(=O)=O)cc1 (stereo partly shown) [Compound 29]	9	872.3
CCc1ccc(C(=O)NCC2(C(=O)N[C@H](CC(=O)NCC(N)=O)Cc3c[nH]c4ccccc34)CC2)cc1 [Compound 31]	4	857.0
CCc1ccc(C(=O)NCC2(C(=O)N[C@@H](CC(=O)NCC(N)=O)Cc3csc4ccccc34)CC2)cc1 [Compound 32]	3	856.7
CCc1ccc(C(=O)NCC2(C(=O)N[C@@H](CC(=O)NCC(N)=O)Cc3ccc(I)cc3)CC2)cc1 [Compound 33]	18	885.6
CCc1ccc(C(=O)NCC2(C(=O)N3Cc4ccccc4C[C@@H]3CC(=O)NCC(N)=O)CC2)cc1 [Compound 35]	5	861.5
CCc1ccc(C(=O)NCC2(C(=O)N[C@@H](CC(=O)NCC(N)=O)Cc3ccc4ccccc4c3)CC2)cc1 [Compound 36]	5	861.7
CCc1ccc(C(=O)NCC2(C(=O)N[C@@H](CC(=O)NCC(N)=O)C(=O)O)CC2)cc1 [Compound 37]	4	858.6
CCc1ccc(C(=O)NCC2(C(=O)NCCC(=O)NCC(N)=O)CC2)cc1 [Compound 38]	4	859.4
CCc1ccc(C(=O)NCC2(C(=O)N[C@@H](CC(=O)N[C@@H](C)C(N)=O)Cc3ccccc3)CC2)cc1 [Compound 39]	8	871.4
CCc1ccc(C(=O)NCC2(C(=O)N[C@@H](CC(=O)N[C@H](C)C(N)=O)Cc3ccccc3)CC2)cc1 [Compound 40]	8	870.1
CCc1ccc(C(=O)NCC2(C(=O)N[C@@H](CC(=O)N[C@@H](C(N)=O)[C@@H](C)O)Cc3c[nH]c4ccccc34)CC2)cc1 [Compound 41]	6	865.3
CCc1ccc(C(=O)NCC2(C(=O)N[C@@H](CC(=O)N[C@@H](Cc3ccccc3)C(N)=O)Cc3ccccc3)CC2)cc1 [Compound 42]	4	858.8
CCc1ccc(C(=O)NCC2(C(=O)N[C@@H](CC(=O)NCCC(N)=O)Cc3ccccc3)CC2)cc1 [Compound 43]	10	874.7
CCc1ccc(C(=O)N(C)CC2(C(=O)NC(CC(=O)NCC(N)=O)Cc3ccccc3)CC2)cc1 (stereo not shown) [Compound 44]	7	869.7
CCc1ccc(C(=O)NCC2(C(=O)N(C)[C@@H](CC(=O)NCC(N)=O)Cc3ccccc3)CC2)cc1 [Compound 45]	5	862.6
CCc1ccc(C(=O)NCC2(C(=O)N[C@@H](CC(=O)N(C)CC(N)=O)Cc3ccccc3)CC2)cc1 [Compound 46]	7	868.4
CCc1ccc(C(=O)NCC2(C(=O)N[C@@H](CC(=O)NCC(=O)N(C)C)Cc3ccccc3)CC2)cc1 [Compound 47]	36	901.0
CCc1ccc(C(=O)NCC2(C(=O)N[C@@H](CC(=O)NCC(=O)NCCOCCOCCOCCOC)Cc3ccccc3)CC2)cc1 [Compound 48]	27	894.1

test system: not listed separately; assay: Parallel artificial membrane permeation assay (PAMPA); assay type: in vitro ADME; conditions: 7 h incubation, duplicates
Procedure: To determine the passive permeability of selected DNMT2 ligands, a parallel artificial membrane permeation assay (PAMPA) was performed as described previously.[68] The experiment was performed in duplicates with Sigma-Aldrich MAIPNTR10 donor plates with 5 μL of an artificial membrane (1% w/v L-α-phosphatidylcholine in n-dodecane) per well. After incubation for 7 h, the acceptor solutions were evaluated by LC/MS (HP Agilent 1100 Series). The peak areas in the UV chromatogram (λ = 210 nm) were used to calculate the areas under the curve (AUCs).

Compound	Papp (PAMPA)
CCc1ccc(C(=O)NCC2(C(=O)N[C@@H](CC(=O)NCC(N)=O)Cc3c[nH]c4ccccc34)CC2)cc1 [Compound 10]	failed to pass through the artificial membrane; also recorded: below detection limit
CCc1ccc(C(=O)NCC2(C(=O)N[C@@H](CC(=O)NCC(N)=O)Cc3ccccc3)CC2)cc1 [Compound 14]	failed to pass through the artificial membrane; also recorded: below detection limit
CCc1ccc(C(=O)NCC2(C(=O)N[C@@H](CC(=O)NCC(=O)N(C)C)Cc3ccccc3)CC2)cc1 [Compound 47]	failed to pass through the artificial membrane; also recorded: below detection limit
CCc1ccc(C(=O)NCC2(C(=O)N[C@@H](CC(=O)NCC(=O)O)Cc3ccccc3)CC2)cc1 [Compound 54]	failed to pass through the artificial membrane; also recorded: below detection limit
